Marks after values point to notes of the source that are not given here.
Key:
[1] = EPR signal of nitroxides exposed to O2 flux formed by HX/XO (spin-loss); format: biochemical
Procedure: For EPR experiments, samples (0.05-0.1 ml) either of solutions of chemicals or cell suspensions were drawn by a syringe into a gas-permeable teflon capillary of 0.8 mm inner diameter, 0.05 mm wall thickness (Zeus Industrial Products, Inc. Raritan, N.J.). Each capillary was folded twice, inserted into a narrow quartz tube which was open at both ends (2.5 mm ID), and then placed horizontally into the EPR cavity. During the experiments, gases of desired compositions were blown around the sample without having to disturb the alignment of the tube within the EPR cavity. EPR spectra were recorded in a Varian E4 (or E9) X-band spectrometer, with field set at 3357 G, modulation frequency of 100 KHz, modulation amplitude of 1 G and non-saturating microwave power. The EPR spectrometer was interfaced to an IBM-PC through an analog-to-digital converter and a data translation hardware (DT2801) and the spectra were digitized using commercial acquisition software, enabling subtraction of background signals. To study the kinetics of the spin-loss, the spectra were deliberately overmodulated, and the magnetic field was kept constant while the intensity of the EPR signal was followed.

[2] = SOD-inhibitable ferricytochrome c reduction assay, rate constants of reaction with O2 (SOD-like activity); format: biochemical; settings: low ionic strength (10 mM HEPES), pH 7.0, 22° C.
Source text: As a further check, the reaction of representatives of both 5- and 6-membered cyclic nitroxides with O2 was studied. The SOD-inhibitable ferricytochrome c reduction assay (Fridovich, Handbook of Methods for Oxygen Radical Research, 213-215, 1985) was used to determine rate constants of reaction with O2. […] The reaction was started by adding 0.01 U/ml XO and the rate of ferricytochrome c reduction, in the absence (V) and in the presence (v) of various nitroxides, was spectrophotometrically followed at 550 nm. Both reference and sample cuvettes contained all the reagents, with the reference cuvette containing 100 units/ml SOD, thereby eliminating spurious reactions from interfering with the determination of rate constants. Data were analyzed by plotting V/v as a function of [nitroxide] and k1 was calculated, knowing kCytC+superoxide, according to:
(V/v)−1=k1x[nitroxide]/kCytC+superoxidex[Cyt−c^III].

[3] = tested on: Chinese hamster V79 cells; experiment: Protection of cells exposed to H2O2 under hypoxic conditions; format: cell-based; settings: 600 μM H2O2, 1 h, 37° C.
Procedure: Some studies required exposure to H2O2 under hypoxic conditions. For these studies, cells dispersed in 1.8 ml of medium were plated into specially designed glass flasks (Russo et al, Radiat. Res., 103, 232-239, 1985). The flasks were sealed with soft rubber stoppers, and 19-gauge needles were pushed through to act as entrance and exit ports for a humidified gas mixture of 95% nitrogen/5% CO2 (Matheson Gas Products). […] Stoppered flasks were connected in series and mounted on a reciprocating platform and gassed at 37° C. for 45 min. […] After 45 min of gassing, the hypoxic H2O2 solution was added to the cell monolayer culture. The cells were exposed to H2O2 for 1 h under hypoxic conditions. N2 gas flow was maintained during the H2O2 exposure. In parallel flasks, DF and CHD were added as described above, and were present during the entire gassing procedure. Following treatment, cell survival was assessed as described above.

[4] = tested on: Chinese hamster V79 cells; experiment: Protection of cells exposed to HX/XO, clonogenic survival; format: cell-based; settings: for cell survival / protection from HX/XO: 0.05 U/ml XO + 0.5 mM HX, 37° C., 5 mM nitroxide, 100 U/ml catalase, SOD, 500 μM DF preincubated 2 h
Procedure: Chinese hamster V79 cells were grown in F12 medium supplemented with 10% fetal calf serum, penicillin, and streptomycin. Survival was assessed in all studies by the clonogenic assay. The plating efficiency range between 80-90%. Stock cultures of exponentially growing cells were trypsinized, rinsed, and plated (5×10^5 cells/dish) into a number of 100 mm petri dishes and incubated 16 h at 37° C. prior to experimental protocols. Cells were exposed for 1 h at 37° C. to either 0.5 mM hypoxanthine (HX)+0.05 U/ml of xanthine oxidase (XO) for varying lengths of time, or to H2O2 at different concentrations. To assess possible modulation in cytotoxicity, catalase, 100 U/ml; SOD, 100 μg/ml; DF, 500 μM; and 5 mM of each of the nitroxides from Table 1 were added to parallel cultures. CHD was prepared in a stock solution in ethanol and diluted into medium such that the final concentration was 5 mM. […] TEMPOL is water soluble and was prepared directly in tissue culture medium. […] DF was added either 2 h prior to or during treatment while the other agents were present only during HX/XO or H2O2 treatment. Following treatment, cells were rinsed, trypsinized, counted, and plated for macroscopic colony formation. For each dose determination cells were plated in triplicate and the experiments were repeated a minimum of two times. Plates were incubated 7 days, after which colonies were fixed with methanol/acetic acid, stained with crystal violet, and counted. Colonies containing >50 cells were scored. Error bars represent S.D. of the mean and are shown when larger than the symbol.

[5] = comparison value for native SOD; cited from earlier work

With CC1(C)CCCC(C)(C)N1[O] [TEMPO, 2,2,6,6-tetramethylpiperidine-1-oxyl] the “Steady state EPR signal (%)” value ([1]; % from total R′RNO + R′RNOH after exposure to 5 mM HX + 0.03 U/ml XO in air-saturated PBS pH 7.2) was 100%, the “effect of O2 on the EPR signal” value ([1]; exposure to O2 flux formed by HX/XO) was “no effect” and the “kR′RNO + O2” value [2] was 1.3 × 10^6 M − 1^s − 1.
For CC(=O)N(O)CCCCCNC(=O)CCC(=O)N(O)CCCCCNC(=O)CCC(=O)N(O)CCCCCN [DF, Desferrioxamine, reference compound], the “protection against H2O2 cytotoxicity under hypoxic conditions” value [3] was “complete protection”, the “cell survival / protection from HX/XO” value [4] was “complete protection” and the “protection from HX/XO, DF added simultaneously” value ([4]; DF addition simultaneously with HX/XO (data not shown)) was “only partial protection”.
For “SOD: superoxide dismutase (SOD), obtained from Sigma”, the “kcat of native SOD” value [5] is listed as 2.3e+09 M⁻¹ s⁻¹ and the “cell survival / protection from HX/XO” value [4] is listed as “not altered”.
